Measurements from patent US11459324B2, “O-glycoprotein-2-acetamido-2-deoxy-3-D-glycopyranosidase inhibitors” (BIOGEN MA INC., priority 2018, dated 2022).
pIC50: −log10 of the molar value.

molecular target: T1, Recombinant full length human OGA enzyme (Homo sapiens, UniProt O60502); experiment: OGA Enzyme Inhibition Biochemical Assay; conditions: 1 nM OGA, 100 μM 4-MUGlcNAc (Km), pH 6.4, 90 minutes at room temperature, 10-point dose-response from 20 μM
T1 construct: Recombinant full length human OGA enzyme was purchased from Origene; purchased Origene
T1 sequence (O60502 1-916): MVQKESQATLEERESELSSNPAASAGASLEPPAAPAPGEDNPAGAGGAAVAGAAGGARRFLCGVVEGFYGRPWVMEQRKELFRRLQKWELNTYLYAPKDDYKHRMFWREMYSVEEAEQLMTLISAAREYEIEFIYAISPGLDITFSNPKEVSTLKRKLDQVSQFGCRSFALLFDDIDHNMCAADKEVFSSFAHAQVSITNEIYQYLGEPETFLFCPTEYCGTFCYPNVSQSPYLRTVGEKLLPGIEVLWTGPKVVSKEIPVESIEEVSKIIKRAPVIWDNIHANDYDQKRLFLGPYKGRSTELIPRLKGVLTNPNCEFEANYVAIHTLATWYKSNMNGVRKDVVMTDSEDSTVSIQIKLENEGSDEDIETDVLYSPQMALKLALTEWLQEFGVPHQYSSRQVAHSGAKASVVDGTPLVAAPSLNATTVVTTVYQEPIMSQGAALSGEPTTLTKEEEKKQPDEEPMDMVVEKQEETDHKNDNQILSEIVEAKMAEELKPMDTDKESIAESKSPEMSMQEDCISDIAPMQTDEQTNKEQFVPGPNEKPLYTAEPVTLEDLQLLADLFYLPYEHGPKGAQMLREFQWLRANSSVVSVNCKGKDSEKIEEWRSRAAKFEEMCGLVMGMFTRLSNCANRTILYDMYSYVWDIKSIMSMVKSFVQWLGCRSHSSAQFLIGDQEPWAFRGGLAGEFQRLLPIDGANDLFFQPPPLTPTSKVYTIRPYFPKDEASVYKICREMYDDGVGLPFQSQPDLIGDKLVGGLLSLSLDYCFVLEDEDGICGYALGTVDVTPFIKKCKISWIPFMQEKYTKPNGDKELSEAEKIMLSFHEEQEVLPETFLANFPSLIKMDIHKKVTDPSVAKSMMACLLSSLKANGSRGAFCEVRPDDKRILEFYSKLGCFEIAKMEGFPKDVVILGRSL
Description: OGA Enzyme Inhibition Biochemical Assay
Recombinant full length human OGA enzyme was purchased from Origene. 4-MUGlCNAc substrate was purchased from Sigma. All other reagents were purchased from Sigma or Fisher. Assay buffer consists of the McIlvaine buffer system, pH 6.4 (0.2M Na2HPO4 mixed with 0.1M citric acid) and 0.01% BSA. Reactions consist of 1 nM OGA, 100 μM 4-MUGlcNAc (Km), and compound in a final volume of 10 μl. Reactions were incubated for 90 minutes at room temperature and quenched with 40 μl of 3M glycine, pH 10 and read on a Perkin Elmer Envision plate reader (Ex: 355 nm/Em: 460 nm). Compounds were tested with a 10-point dose-response starting from 20 μM with a 4-fold dilution. Data was fit using GraphPad Prism using a 4-parameter fit with variable slope.

Compound | pIC50
CC(=O)Nc1ncc(CN2CCC(F)(F)C(Cc3ncc(F)cn3)C2)s1 (centres unmarked) [Example 2-14, N-(5-((4,4-difluoro-3-((5-fluoropyrimidin-2-yl)methyl)piperidin-1-yl)methyl)thiazol-2-yl)acetamide] | 7.92
CC(=O)Nc1ncc(CN2CCCC(Cc3cncc(C)n3)C2)s1 (centres unmarked) [Example 1-33, N-(5-((3-((6-methylpyrazin-2-yl)methyl)piperidin-1-yl)methyl)thiazol-2-yl)acetamide] | 8.40
CCC(=O)Nc1nc(F)c(CN2CC[C@H](Cc3ncc(F)cn3)C2)s1 [Example 3-27, (R)-N-(4-fluoro-5-((3-((5-fluoropyrimidin-2-yl)methyl)pyrrolidin-1-yl)methyl)thiazol-2-yl)propionamide] | 7.47
CC(=O)Nc1ncc(CN2CCCC(Cc3ncnc4ccsc34)C2)s1 (centres unmarked) [Example 1-44, N-(5-((3-(thieno[3,2-d]pyrimidin-4-ylmethyl)piperidin-1-yl)methyl)thiazol-2-yl)acetamide] | 8.70
CC(=O)Nc1ncc(CN2CCC(F)(Cc3ncc(F)cn3)C2)s1 (centres unmarked) [Example 2-16, N-(5-((3-fluoro-3-((5-fluoropyrimidin-2-yl)methyl)pyrrolidin-1-yl)methyl)thiazol-2-yl)acetamide] | 6.06
CC(=O)Nc1ncc(CN2C[C@@H](Cc3ncc(F)cn3)C[C@H]2C(F)(F)F)s1 (single isomer, unassigned) [Example 2-45] | 6.89
CC(=O)Nc1ncc(CN2C[C@@H](Cc3ncc(F)cn3)[C@H](C)C2)s1 (relative stereo) [Example 2-22, N-(5-(((trans)-3-((5-fluoropyrimidin-2-yl)methyl)-4-methylpyrrolidin-1-yl)methyl)thiazol-2-yl)acetamide] | 7.44
CC(=O)Nc1nc(F)c(CN2CCC[C@H](Cc3cc(C)nc(C)n3)C2)s1 [Example 3-21, (R)-N-(5-((3-((2,6-dimethylpyrimidin-4-yl)methyl)piperidin-1-yl)methyl)-4-fluorothiazol-2-yl)acetamide] | > 9.00
CC(=O)Nc1nc(F)c(CN2CCC[C@H](Cc3cc(C)nc(C)c3)C2)s1 [Example 3-25, (R)-N-(5-((3-((2,6-dimethylpyridin-4-yl)methyl)piperidin-1-yl)methyl)-4-fluorothiazol-2-yl)acetamide] | > 9.00
CC(=O)Nc1ncc(CN2C[C@@H](Cc3ncc(F)cn3)C[C@@H]2C)s1 (single isomer, unassigned) [Example 2-21] | 6.97
CC(=O)Nc1ncc(CN2CCCC(Cc3cncc(C(F)(F)F)n3)C2)s1 (centres unmarked) [Example 1-26, N-(5-((3-((6-(trifluoromethyl)pyrazin-2-yl)methyl)piperidin-1-yl)methyl)thiazol-2-yl)acetamide] | 7.52
COc1cc(C(C)C2CCN(Cc3sc(NC(C)=O)nc3F)C2)ncn1 (centres unmarked) [Example 2-52, N-(4-fluoro-5-((3-(1-(6-methoxypyrimidin-4-yl)ethyl)pyrrolidin-1-yl)methyl)thiazol-2-yl)acetamide] | 8.77
COc1cc(C[C@H]2CCCN(Cc3sc(NC(C)=O)nc3F)C2)ccn1 [Example 3-19, (R)-N-(4-fluoro-5-((3-((2-methoxypyridin-4-yl)methyl)piperidin-1-yl)methyl)thiazol-2-yl)acetamide] | > 9.00
CC(=O)Nc1ncc(CN2CCCC(Cc3ncccc3C(F)(F)F)C2)s1 (centres unmarked) [Example 1-46, N-(5-((3-((3-(trifluoromethyl)pyridin-2-yl)methyl)piperidin-1-yl)methyl)thiazol-2-yl)acetamide] | 7.60
COc1cncc(CC2CCCN(Cc3cnc(NC(C)=O)s3)C2)c1 (centres unmarked) [Example 1-8, N-(5-((3-((5-methoxypyridin-3-yl)methyl)piperidin-1-yl)methyl)thiazol-2-yl)acetamide] | 7.54
CC(=O)Nc1ncc(CN2CCC[C@H](Cc3ncc(F)c(C)n3)C2)s1 [Example 2-7, (R)-N-(5-((3-((5-fluoro-4-methylpyrimidin-2-yl)methyl)piperidin-1-yl)methyl)thiazol-2-yl)acetamide] | 8.52
CC(=O)Nc1ncc(CN2C[C@H](Cc3ncc(F)cn3)C[C@@H]2C(F)(F)F)s1 (single isomer, unassigned) [Example 2-47] | 5.92
CC(=O)Nc1nc(F)c(CN2CCC[C@H](Cc3ccnc(C)c3)C2)s1 [Example 3-18, (R)-N-(4-fluoro-5-((3-((2-methylpyridin-4-yl)methyl)piperidin-1-yl)methyl)thiazol-2-yl)acetamide] | > 9.00
CC(=O)Nc1ncc(CN2C[C@H](Cc3ncc(F)cn3)C[C@@H]2C(F)(F)F)s1 (single isomer, unassigned) [Example 2-44] | < 4.70
CC(=O)Nc1ncc(CN2CCC(C(C)c3ncc(F)cn3)C2)s1 (centres unmarked) [Example 2-36, N-(5-((3-(1-(5-fluoropyrimidin-2-yl)ethyl)pyrrolidin-1-yl)methyl)thiazol-2-yl)acetamide] | 9.00
CC(=O)Nc1ncc(CN2CCCC(Cc3cncs3)C2)s1 (centres unmarked) [Example 1-37, N-(5-((3-(thiazol-5-ylmethyl)piperidin-1-yl)methyl)thiazol-2-yl)acetamide] | 8.40
CC(=O)Nc1ncc(CN2CCC[C@H](Cc3ncc(F)cn3)C2)s1 [Example 3-1, N-[5-[[(3R)-3-[(5-fluoropyrimidin-2-yl)methyl]-1-piperidyl]methyl]thiazol-2-yl]acetamide] | 9.00

Next, values leading:

pIC50 | Compound
6.44 | COc1cnn(CC2CCCN(Cc3cnc(NC(C)=O)s3)C2)c1 (centres unmarked) [Example 4-8, N-(5-((3-((4-methoxy-1H-pyrazol-1-yl)methyl)piperidin-1-yl)methyl)thiazol-2-yl)acetamide]
7.24 | CC(=O)Nc1ncc(CN2CCCC(Cn3cnc4ccccc43)C2)s1 (centres unmarked) [Example 4-24, N-(5-((3-((1H-benzo[d]imidazol-1-yl)methyl)piperidin-1-yl)methyl)thiazol-2-yl)acetamide]
8.66 | CCC(=O)Nc1nc(F)c(CN2CCC[C@H](Cc3cc(OC)ncn3)C2)s1 [Example 3-49, (R)-N-(4-fluoro-5-((3-((6-methoxypyrimidin-4-yl)methyl)piperidin-1-yl)methyl)thiazol-2-yl)propionamide]
7.37 | CC(=O)Nc1ncc(CN2CCCC(Cc3nccn3C)C2)s1 (centres unmarked) [Example 4-22, N-(5-((3-((1-methyl-1H-imidazol-2-yl)methyl)piperidin-1-yl)methyl)thiazol-2-yl)acetamide]
> 9.00 | CC(=O)Nc1nc(F)c(CN2C[C@@H](Cc3noc(C)n3)CC[C@@H]2C)s1 [Example 4-16, N-(4-fluoro-5-(((2S,5R)-2-methyl-5-((5-methyl-1,2,4-oxadiazol-3-yl)methyl)piperidin-1-yl)methyl)thiazol-2-yl)acetamide]
8.80 | CC(=O)Nc1nc(F)c(CN2C[C@H](Cc3noc(C)n3)CC[C@@H]2C)s1 [Example 4-15, N-(4-fluoro-5-(((2S,5S)-2-methyl-5-((5-methyl-1,2,4-oxadiazol-3-yl)methyl)piperidin-1-yl)methyl)thiazol-2-yl)acetamide]
6.82 | CC(=O)Nc1nc(F)c(CN2C[C@H](Cc3ncc(F)cn3)C[C@@H]2C)s1 [Example 3-40, N-(4-fluoro-5-(((2S,4S)-4-((5-fluoropyrimidin-2-yl)methyl)-2-methylpyrrolidin-1-yl)methyl)thiazol-2-yl)acetamide]
8.18 | CC(=O)Nc1nc(F)c(CN2CCCC(Cc3noc(C)n3)C2)s1 (centres unmarked) [Example 4-18, N-(4-fluoro-5-((3-((5-methyl-1,2,4-oxadiazol-3-yl)methyl)piperidin-1-yl)methyl)thiazol-2-yl)acetamide]
8.36 | COc1cc(C[C@H]2C[C@@H](C)N(Cc3sc(NC(C)=O)nc3F)C2)ncn1 [Example 3-45, N-(4-fluoro-5-(((2R,4R)-4-((6-methoxypyrimidin-4-yl)methyl)-2-methylpyrrolidin-1-yl)methyl)thiazol-2-yl)acetamide]
> 9.00 | CC(=O)Nc1nc(F)c(CN2CCC[C@H](Cc3ncc(F)cn3)C2)s1 [Example 3-48, (R)-N-(4-fluoro-5-((3-((5-fluoropyrimidin-2-yl)methyl)piperidin-1-yl)methyl)thiazol-2-yl)acetamide]
